The source of these data is ChEMBL document CHEMBL4118136, “The photodynamic activity of 131-[2'-(2-pyridyl)ethylamine] chlorin e6 photosensitizer in human esophageal cancer” (Bioorg Med Chem Lett, 2018).

Molecules are shown by their SMILES. Active and inactive are the calls of the source. No cut-off for these calls is given here.

The subject of data set [1] is ECa-109 cell line. As to the kind of experiment: Antitumor activity against human ECA109 cells xenografted in Balb/C nude mouse assessed as inhibition of tumor growth at 2 mg/kg, iv followed by irradiation at 100 J/cm2 and measured after 13 days relative to untreated control. Type of data set: functional. To be noted: ECa-109, light or radiation study, 312 h, read-out: TGI. (A xenograft is tissue or cells of one species grown in another, often human tumour cells in immunodeficient mice.)

Data set [2] can be described thus: Induction of singlet oxygen generation assessed as DPBF chemical oxidation in DMF solution incubated for 10 to 30 secs under irradiation by UV-Vis spectrophotometry. The class given is functional. The conditions noted are these: TDE = time-dependent effect.
Data set [3] can be described thus: Induction of singlet oxygen generation assessed as DPBF chemical oxidation in DMF solution incubated for 10 to 30 secs under irradiation by UV-Vis spectrophotometry relative to mTHPC. The class given is functional.
Data set [4] in a line: Induction of singlet oxygen generation assessed as singlet oxygen quantum yield by measuring DPBF chemical oxidation in DMF solution incubated for 10 to 30 secs under irradiation by UV-Vis spectrophotometry. Type of data set: functional.
The test system of data set [5] is ECa-109 cell line. As to the kind of experiment: Cytotoxicity in human ECA109 cells assessed as reduction in cell viability incubated for 24 hrs followed by irradiation with 0.5 J/cm2 red light by MTT assay. The class given is functional, cell-based. To be noted: ECa-109, light or radiation study. For orientation: Formazan colour is commonly taken as a measure of viable cells.

In data set [6] the test system is ECa-109 cell line. In words: Cytotoxicity in human ECA109 cells assessed as reduction in cell viability incubated for 24 hrs followed by irradiation with 1 J/cm2 red light by MTT assay. To be noted: ECa-109, light or radiation study. Type of data set: functional, cell-based.
Data set [7] deals with ECa-109 cell line. In words: Cytotoxicity in human ECA109 cells assessed as reduction in cell viability incubated for 24 hrs followed by irradiation with 1.5 J/cm2 red light by MTT assay. The conditions noted are these: ECa-109, light or radiation study. The class given is functional, cell-based.
Data set [8] relates to ECa-109 cell line. In words: Cytotoxicity in human ECA109 cells assessed as reduction in cell viability incubated for 24 hrs followed by irradiation with 2 J/cm2 red light by MTT assay. To be noted: ECa-109, light or radiation study. The class given is functional, cell-based.
The test system of data set [9] is ECa-109 cell line. As to the kind of experiment: Cytotoxicity in human ECA109 cells assessed as reduction in cell viability incubated for 24 hrs followed by irradiation with 2.5 J/cm2 red light by MTT assay. Type of data set: functional, cell-based. To be noted: ECa-109, light or radiation study.
Data set [10] in a line: Drug uptake in human ECA109 cells at 0.5 uM incubated for 2 to 24 hrs by fluorescence spectrometry. Type of data set: ADME, cell-based. The conditions noted are these: eca-109, 0.5 µM, TDE = time-dependent effect.
In data set [11] the test system is ECa-109 cell line. As to the kind of experiment: Cytotoxicity in human ECA109 cells assessed as reduction in cell viability incubated for 24 hrs followed by irradiation with 0.5 to 2.5 J/cm2 red light by MTT assay. The class given is functional, cell-based.
The nature of data set [12]: Dark toxicity in human ECA109 cells assessed as reduction in cell viability at 0.1 to 0.9 uM incubated for 24 hrs under dark conditions by MTT assay. The class given is cell-based. To be noted: eca-109, 24 h.
Data set [13] in a line: Drug accumulation in mitochondria of human ECA109 cells at 0.9 uM incubated for 4 hrs by mitotracker green dye based confocal microscopy. To be noted: eca-109, 4 h. Type of data set: ADME.
The nature of data set [14]: Drug accumulation in lysosome of human ECA109 cells at 0.9 uM incubated for 4 hrs by Lyso tracker blue green dye based confocal microscopy. The class given is ADME, subcellular. The conditions noted are these: eca-109, 4 h.
The nature of data set [15]: Drug accumulation in endoplasmic reticulum of human ECA109 cells at 0.9 uM incubated for 4 hrs by ER-green[DiOC6(3)] dye based confocal microscopy. Type of data set: ADME, subcellular. The conditions noted are these: eca-109, 4 h.
Data set [16] is described as follows: Induction of apoptosis in human ECA109 cells assessed as viable cells level in absence of irradiation by Annexin V and propidium iodide staining based flow cytometry (reference value: 99.99%). The class given is cell-based, ECa-109. To be noted: read-out: Activity.
In data set [17] the test system is ECa-109 cell line. As to the kind of experiment: Induction of apoptosis in human ECA109 cells assessed as early apoptotic cells level in absence of irradiation by Annexin V and propidium iodide staining based flow cytometry. Type of data set: cell-based. Background: Flow cytometry measures light scatter and fluorescence of single cells or particles in a stream.

Data set [18] deals with ECa-109 cell line. As to the kind of experiment: Induction of apoptosis in human ECA109 cells assessed as late apoptotic cells level in absence of irradiation by Annexin V and propidium iodide staining based flow cytometry (reference value: 0.01%). The class given is cell-based.
For data set [19], the system named is ECa-109 cell line. As to the kind of experiment: Induction of apoptosis in human ECA109 cells assessed as necrotic cells level in absence of irradiation by Annexin V and propidium iodide staining based flow cytometry. The class given is cell-based.
The test system of data set [20] is ECa-109 cell line. In words: Induction of apoptosis in human ECA109 cells assessed as viable cells level measured 2 hrs after 2 J/cm2 irradiation by Annexin V and propidium iodide staining based flow cytometry (reference value: 99.99%). The class given is functional.
Data set [21] deals with ECa-109 cell line. In words: Induction of apoptosis in human ECA109 cells assessed as early apoptosis cells level measured 2 hrs after 2 J/cm2 irradiation by Annexin V and propidium iodide staining based flow cytometry. Type of data set: functional.
The test system of data set [22] is ECa-109 cell line. As to the kind of experiment: Induction of apoptosis in human ECA109 cells assessed as late apoptosis cells level measured 2 hrs after 2 J/cm2 irradiation by Annexin V and propidium iodide staining based flow cytometry (reference value: 0.01%). Type of data set: functional.
In data set [23] the test system is ECa-109 cell line. In words: Induction of apoptosis in human ECA109 cells assessed as necrosis cells level measured 2 hrs after 2 J/cm2 irradiation by Annexin V and propidium iodide staining based flow cytometry. The class given is functional.
In data set [24] the test system is ECa-109 cell line. As to the kind of experiment: Induction of apoptosis in human ECA109 cells assessed as viable cells level measured 4 hrs after 2 J/cm2 irradiation by Annexin V and propidium iodide staining based flow cytometry (reference value: 99.99%). Type of data set: functional.
Data set [25] deals with ECa-109 cell line. As to the kind of experiment: Induction of apoptosis in human ECA109 cells assessed as early apoptosis cells level measured 4 hrs after 2 J/cm2 irradiation by Annexin V and propidium iodide staining based flow cytometry. Type of data set: functional.
The subject of data set [26] is ECa-109 cell line. In words: Induction of apoptosis in human ECA109 cells assessed as late apoptosis cells level measured 4 hrs after 2 J/cm2 irradiation by Annexin V and propidium iodide staining based flow cytometry (reference value: 0.01%). The class given is functional.
The subject of data set [27] is ECa-109 cell line. In words: Induction of apoptosis in human ECA109 cells assessed as necrosis cells level measured 4 hrs after 2 J/cm2 irradiation by Annexin V and propidium iodide staining based flow cytometry. Type of data set: functional.
Data set [28] deals with ECa-109 cell line. As to the kind of experiment: Induction of apoptosis in human ECA109 cells assessed as viable cells level measured 8 hrs after 2 J/cm2 irradiation by Annexin V and propidium iodide staining based flow cytometry (reference value: 99.99%). The class given is functional.
Data set [29] has as its system ECa-109 cell line. As to the kind of experiment: Induction of apoptosis in human ECA109 cells assessed as early apoptosis cells level measured 8 hrs after 2 J/cm2 irradiation by Annexin V and propidium iodide staining based flow cytometry. The class given is functional.
For data set [30], the system named is ECa-109 cell line. In words: Induction of apoptosis in human ECA109 cells assessed as late apoptosis cells level measured 8 hrs after 2 J/cm2 irradiation by Annexin V and propidium iodide staining based flow cytometry (reference value: 0.01%). Type of data set: functional.
Data set [31] relates to ECa-109 cell line. In words: Induction of apoptosis in human ECA109 cells assessed as necrosis cells level measured 8 hrs after 2 J/cm2 irradiation by Annexin V and propidium iodide staining based flow cytometry. Type of data set: functional.
Data set [32] has as its system ECa-109 cell line. As to the kind of experiment: Induction of apoptosis in human ECA109 cells assessed as reduction in pro-caspase-3 activity measured 2 hrs after 2 J/cm2 irradiation. Type of data set: functional, cell-based.
Data set [33] concerns ECa-109 cell line. In words: Antitumor activity against human ECA109 cells xenografted in Balb/C nude mouse assessed as reduction in tumor cell per unit area at 2 mg/kg, iv followed by irradiation at 100 J/cm2 and measured after 13 days by hematoxylin-eosin staining based light microscopy relative to untreated control. The class given is functional, organism-based.
Data set [34] deals with ECa-109 cell line. In words: Antitumor activity against human ECA109 cells xenografted in Balb/C nude mouse assessed as increase in cell differentiation at 2 mg/kg, iv followed by irradiation at 100 J/cm2 and measured after 13 days by hematoxylin-eosin staining based light microscopy relative to untreated control. The class given is functional, organism-based.
For data set [35], the system named is ECa-109 cell line. As to the kind of experiment: Antitumor activity against human ECA109 cells xenografted in Balb/C nude mouse assessed as increase in megakaryocytes level at 2 mg/kg, iv followed by irradiation at 100 J/cm2 and measured after 13 days by hematoxylin-eosin staining based light microscopy relative to untreated control. The class given is functional, organism-based.

The test system of data set [36] is ECa-109 cell line. As to the kind of experiment: Antitumor activity against human ECA109 cells xenografted in Balb/C nude mouse assessed as increase in nuclear fission level at 2 mg/kg, iv followed by irradiation at 100 J/cm2 and measured after 13 days by hematoxylin-eosin staining based light microscopy relative to untreated control. The class given is functional, organism-based.

For data set [37], the system named is ECa-109 cell line. As to the kind of experiment: Induction of apoptosis in human ECA109 cells xenografted in Balb/C nude mouse at 2 mg/kg, iv followed by irradiation at 100 J/cm2 and measured after 13 days by TUNEL staining based light microscopy relative to untreated control. Type of data set: functional.

For the compound `Oc1cccc(-c2c3nc(c(-c4cccc(O)c4)c4ccc([nH]4)c(-c4cccc(O)c4)c4nc(c(-c5cccc(O)c5)c5ccc2[nH]5)CC4)C=C3)c1` [TEMOPORFIN], the inhibition in vivo at 2 mg/kg in the data set with ECa-109 cell line [1] stood at 79%.
Consider `C=Cc1c(C)c2cc3nc(c(CC(=O)OC)c4[nH]c(cc5nc(cc1[nH]2)C(C)=C5CC)c(C)c4C(=O)NCCc1ccccn1)[C@@H](CCC(=O)OC)[C@@H]3C`, for which the Activity entry in data set [2] was “Tde”; in the data set on ECa-109 cell line [11], “Dose-dependent effect”; in [12], “Non-Toxic”; in the data set on ECa-109 cell line [17], 3.16%; with ECa-109 cell line [18], 4.7%; with ECa-109 cell line [19], 2.3%. In addition, the Activity in the data set with ECa-109 cell line [20] is 15.19%; in the data set on ECa-109 cell line [21] it was 7.15%; in the data set with ECa-109 cell line [22], 68.34%; with ECa-109 cell line [23] it was 9.33%; with ECa-109 cell line [24], 13.1%; with ECa-109 cell line [25], 8.1%. In addition, the Activity worked out at 70.93% in the data set with ECa-109 cell line [26]; 7.87% in the data set with ECa-109 cell line [27]; 4.92% with ECa-109 cell line [28]; 6.01% in the data set with ECa-109 cell line [29]; 85.78% in the data set with ECa-109 cell line [30]; 3.29% in the data set with ECa-109 cell line [31]. The compound also showed an Activity in the data set on ECa-109 cell line [37] of 40%. In addition, the fold change (FC) in data set [3] amounted to 0.0193. For the same compound, the Activity index in data set [4] was 0.98. The IC50 (commonly the concentration that inhibits the measured activity by half) was 1330 nM in the data set on ECa-109 cell line [5]; 640 nM in the data set on ECa-109 cell line [6]; 430 nM in the data set on ECa-109 cell line [7]; 380 nM in the data set with ECa-109 cell line [8]; 300 nM in the data set with ECa-109 cell line [9]. The Drug uptake result in [10] is on record as “Tde”; in [13] it was “Active”; in data set [14], “Active”; in data set [15] it was “Active”. In addition, the viability in data set [16] is 89.8%. The result in the data set on ECa-109 cell line [32], in the data set with ECa-109 cell line [33], in the data set with ECa-109 cell line [34], in the data set with ECa-109 cell line [35] and with ECa-109 cell line [36] was Active. Moreover, in the data set with ECa-109 cell line [1], the inhibition in vivo at 2 mg/kg is 92%.
